We go through 67 compounds from patent US9617286B2, “Fungicide N-[(trisubstitutedsilyl)methyl]-carboxamide derivatives” (BAYER INTELLECTUAL PROPERTY GMBH, priority 2011, dated 2017).

Test system in the first data set: not listed separately
The data set can be described thus: log P by HPLC on reversed-phase column (C 18), EEC Directive 79/831 Annex V.A8. In kind it is physicochemical. As to conditions: 40° C., 0.1% aqueous formic acid and acetonitrile, linear gradient 10% to 90% acetonitrile. The protocol:
In table 1, the log P values were determined in accordance with EEC Directive 79/831 Annex V.A8 by HPLC (High Performance Liquid Chromatography) on a reversed-phase column (C 18), using the method described below:
Temperature: 40° C.; Mobile phases: 0.1% aqueous formic acid and acetonitrile; linear gradient from 10% acetonitrile to 90% acetonitrile.
Calibration was carried out using unbranched alkan-2-ones (comprising 3 to 16 carbon atoms) with known log P values (determination of the log P values by the retention times using linear interpolation between two successive alkanones). lambda-max-values were determined using UV-spectra from 200 nm to 400 nm and the peak values of the chromatographic signals.
Compound `C[Si](C)(CNC(=S)c1cccnc1C(F)F)c1ccccc1Cl` [Example 123] showed a logP of 3.83.

Compound `C[Si](C)(Cc1cc(Cl)cc(Cl)c1)CN(C(=O)c1cccnc1Cl)C1CC1` [Example 118] displayed a logP of 4.92.

In the case of `C[Si](C)(CN(C(=O)c1ccccc1I)C1CC1)c1ccccc1Cl` [Example 24], the log partition coefficient (logP) came out at 5.14.

For the compound `C[Si](C)(CN(C(=O)c1ccccc1I)C1CC1)c1cccc2ccccc12` [Example 70], the logP worked out at 5.31. `C[Si](C)(CN(C(=O)c1ccccc1I)C1CC1)c1ccc2ccccc2c1` [Example 76]: the lipophilicity (logP) was 5.36. As for `C[Si](C)(CN(C(=O)c1ccccc1C(F)(F)F)C1CC1)c1cccs1` [Example 85], the logP is recorded as 4.51.

Compound `C[Si](C)(Cc1ccc(Cl)cc1Cl)CN(C(=O)c1nccnc1C(F)(F)F)C1CC1` [Example 111] came in with a logP of 5.45. For `C[Si](C)(CN(C(=O)c1cccnc1Cl)C1CC1)c1cccc2ccccc12` [Example 69], the logP turned out to be 4.15. As to `C[Si](C)(CN(C(=O)c1cccnc1Cl)C1CC1)c1ccccc1Cl` [Example 23], the logP is given as 3.94. `CC[Si](C)(CN(C(=O)c1cccnc1C(F)(F)F)C1CC1)c1ccccc1Cl` (stereo not shown) [Example 37] came in with a logP of 4.71. Regarding `C[Si](C)(Cc1cc(Cl)cc(Cl)c1)CN(C(=O)c1ccccc1C(F)(F)F)C1CC1` [Example 120], the log partition coefficient (logP) was determined as 5.94. Turning to `C[Si](C)(CN(C(=O)c1nccnc1C(F)(F)F)C1CC1)c1cccs1` [Example 82], the logP was 4.01. On to `C[Si](C)(CN(C(=S)c1cccnc1C(F)F)C1CC1)c1ccc(Cl)cc1Cl` [Example 124], for which the logP turned out to be 5.13. For `C[Si](C)(CN(C(=O)c1cccnc1Cl)C1CC1)c1ccccc1` [Example 4], the logP is 3.50.

Compound `CC1=C(C(=O)NC[Si](C)(C)c2ccccc2)SCCO1` [Example 6] gave a logP of 3.13.

For `C[Si](C)(CN(C(=O)c1nccnc1C(F)(F)F)C1CC1)c1cc(Cl)cc(Cl)c1` [Example 64], the logP is 4.95.

`C[Si](C)(Cc1ccccc1Cl)CN(C(=S)c1cccnc1C(F)F)C1CC1` [Example 127] had a logP of 4.76. Consider `C[Si](C)(Cc1cc(Cl)cc(Cl)c1)CN(C(=O)c1ccccc1I)C1CC1` [Example 119], for which the log partition coefficient (logP) turned out to be 6.14. On the same count and under the same terms, for `C[Si](C)(Cc1ccccc1Cl)CN(C(=O)c1cccnc1C(F)(F)F)C1CC1` [Example 103] the value was 4.59. Compound `C[Si](C)(Cc1ccc(Cl)cc1Cl)CN(C(=O)c1ccccc1C(F)(F)F)C1CC1` [Example 114] returned a logP of 5.94. On the same count and under the same terms, for `C[Si](C)(CN(C(=O)c1cccnc1Cl)C1CC1)c1ccccc1C(F)(F)F` [Example 53] the value was 4.04. Take `C[Si](C)(Cc1ccc(Cl)cc1Cl)CN(C(=O)c1ccccc1I)C1CC1` [Example 113]: the logP is 6.14. Compound `C[Si](C)(Cc1ccccc1)CN(C(=O)c1cccnc1C(F)(F)F)C1CC1` [Example 97] had a log partition coefficient (logP) of 4.19. Same read-out and setting: with `C[Si](C)(CN(C(=O)c1cccnc1C(F)(F)F)C1CC1)c1cc(Cl)cc(Cl)c1` [Example 67] the figure was 4.95. `C[Si](C)(Cc1ccccc1)CN(C(=O)c1cccnc1Cl)C1CC1` [Example 94] had a logP of 3.87.

As for `C[Si](C)(CN(C(=O)c1ccccc1C(F)(F)F)C1CC1)c1ccc2ccccc2c1` [Example 80], the logP came out at 5.25. `C[Si](C)(CN(C(=O)c1ccccc1C(F)(F)F)C1CC1)c1ccc(Cl)cc1Cl` [Example 61] yielded a logP of 5.72. The compound `C[Si](C)(CN(C(=O)c1cccnc1Cl)C1CC1)c1ccc2ccccc2c1` [Example 75] yielded a logP of 4.23.

`C[Si](C)(Cc1cccc(Cl)c1)CN(C(=O)c1ccccc1C(F)(F)F)C1CC1` [Example 108] showed a logP of 5.31. Consider `C[Si](C)(CN(C(=O)c1ccccc1I)C1CC1)c1cccc(Cl)c1` [Example 30], for which the logP is recorded as 5.14. In the case of `C[Si](C)(Cc1ccccc1)CN(C(=O)c1ccccc1I)C1CC1` [Example 95], the logP is given as 5.00.

In the case of `C[Si](C)(CN(C(=O)c1ccccc1I)C1CC1)c1ccsc1` [Example 89], the logP is reported as 4.49. In the case of `C[Si](C)(CN(C(=O)c1cccnc1C(F)(F)F)C1CC1)c1cccc(Cl)c1` [Example 33], the logP was determined as 4.34. `C[Si](C)(CN(C(=S)c1nccnc1C(F)(F)F)C1CC1)c1ccc2ccccc2c1` [Example 126] returned a logP of 5.35.

Turning to `C[Si](C)(Cc1cccc(Cl)c1)CN(C(=O)c1cccnc1C(F)(F)F)C1CC1` [Example 109], the logP was 4.61. In turn, `C[Si](C)(CN(C(=O)c1cccnc1C(F)(F)F)C1CC1)c1ccccc1Cl` [Example 27] returned a logP of 4.31. Turning to `C[Si](C)(CN(C(=O)c1ccccc1C(F)(F)F)C1CC1)c1ccsc1` [Example 90], the logP is given as 4.44. As to `CC1=C(C(=O)N(C[Si](C)(C)c2ccccc2Cl)C2CC2)SCCO1` [Example 43], the logP came to 4.29. Still for that read-out and setting: for `C[Si](C)(Cc1cc(Cl)cc(Cl)c1)CN(C(=O)c1cccnc1C(F)(F)F)C1CC1` [Example 121] the value was 5.22; for `C[Si](C)(CN(C(=O)c1cccnc1C(F)(F)F)C1CC1)c1cccs1` [Example 81], 3.80.

`C[Si](C)(CN(C(=O)c1ccccc1C(F)(F)F)C1CC1)c1cccc2ccccc12` [Example 71] registered a logP of 5.19. `C[Si](C)(CN(C(=O)c1cccnc1Cl)C1CC1)c1ccc(Cl)cc1Cl` [Example 59]: the logP came out at 4.64. In the case of `C[Si](C)(CN(C(=O)c1ccccc1C(F)(F)F)C1CC1)c1ccccc1Cl` [Example 25], the logP was determined as 5.03.

Compound `C[Si](C)(CN(C(=O)c1ccccc1C(F)(F)F)C1CC1)c1cccc(Cl)c1` [Example 31] showed a logP of 5.03.

The compound `CN(C[Si](C)(C)c1cc(Cl)cc(Cl)c1)C(=O)c1cccnc1C(F)F` [Example 122] showed a logP of 3.92.

`C[Si](C)(Cc1ccccc1Cl)CN(C(=O)c1cccnc1C(F)F)C1CC1` [Example 98] gave a logP of 4.11.

In turn, `C[Si](C)(Cc1cccc(Cl)c1)CN(C(=O)c1cccnc1Cl)C1CC1` [Example 106] had a logP of 4.30. `CCc1ccccc1[Si](C)(C)CN(C(=O)c1cccnc1C(F)F)C1CC1` [Example 19]: the logP was 4.06.

`C[Si](C)(Cc1cccc(Cl)c1)CN(C(=O)c1ccccc1I)C1CC1` [Example 107] registered a logP of 5.45.

Compound `C[Si](C)(CN(C(=O)c1cccnc1Cl)C1CC1)c1cccs1` [Example 83] yielded a logP of 3.39. On the same count and under the same terms, for `C[Si](C)(CN(C(=O)c1cccnc1Cl)C1CC1)c1cc(Cl)cc(Cl)c1` [Example 65] the value was 4.61; for `C[Si](C)(CN(C(=O)c1cccnc1Cl)C1CC1)c1ccsc1` [Example 88], 3.33. As to `C[Si](C)(Cc1ccc(Cl)cc1Cl)CN(C(=O)c1cccnc1C(F)(F)F)C1CC1` [Example 115], the logP worked out at 5.22. The compound `C[Si](C)(Cc1ccccc1Cl)CN(C(=O)c1cccnc1Cl)C1CC1` [Example 100] yielded a logP of 4.25. With `C[Si](C)(Cc1ccccc1)CN(C(=O)c1ccccc1C(F)(F)F)C1CC1` [Example 96], the logP was 4.90. Still for that read-out and setting: with `CCc1ccccc1[Si](C)(C)CN(C(=O)c1cccnc1Cl)C1CC1` [Example 18] the figure was 4.16; with `C[Si](C)(Cc1cc(Cl)cc(Cl)c1)CN(C(=O)c1nccnc1C(F)(F)F)C1CC1` [Example 116], 5.45.

The compound `C[Si](C)(Cc1ccccc1Cl)CN(C(=O)c1ccccc1C(F)(F)F)C1CC1` [Example 102] yielded a logP of 5.31. For `C[Si](C)(CN(C(=O)c1cccnc1Cl)C1CC1)c1cccc(Cl)c1` [Example 35], the logP was found to be 3.96. In turn, `C[Si](C)(CN(C(=O)c1ccccc1I)C1CC1)c1cccs1` [Example 84] yielded a logP of 4.59. As for `C[Si](C)(Cc1ccc(Cl)cc1Cl)CN(C(=O)c1cccnc1Cl)C1CC1` [Example 112], the logP is reported as 4.90.

On to `C[Si](C)(CN(C(=O)c1ccccc1C(F)(F)F)C1CC1)c1cc(Cl)cc(Cl)c1` [Example 66], for which the logP came out at 5.65. On to `C[Si](C)(CNC(=O)c1cccnc1C(F)F)c1ccc(Cl)cc1Cl` [Example 57], for which the logP was 3.64. Same read-out and setting: with `C[Si](C)(CN(C(=O)c1cccnc1C(F)(F)F)C1CC1)c1cccc2ccccc12` [Example 73] the figure was 4.51; with `C[Si](C)(Cc1ccccc1Cl)CN(C(=O)c1ccccc1I)C1CC1` [Example 101], 5.45; with `C[Si](C)(CN(C(=O)c1ccccc1I)C1CC1)c1ccc(Cl)cc1Cl` [Example 60], 5.88. `C[Si](C)(CN(C(=S)c1cccnc1C(F)F)C1CC1)c1ccc2ccccc2c1` [Example 125] came in with a logP of 4.72.

A further data set relates to Pyrenophora teres. The data set can be described thus: In vivo preventive test on Pyrenophora teres (barley). As to conditions: preventive spray (DMF/alkylaryl polyglycol ether), 500 ppm of active ingredient, evaluated 7-9 days after inoculation. The protocol: Solvent: 49 parts by weight of N,N-dimethylformamide Emulsifier: 1 part by weight of alkylaryl polyglycol ether To produce a suitable preparation of active compound, 1 part by weight of active compound is mixed with the stated amounts of solvent and emulsifier, and the concentrate is diluted with water to the desired concentration. To test for preventive activity, young plants are sprayed with the preparation of active compound at the stated rate of application. One day after this treatment, the plants are inoculated with an aqueous spore suspension of Pyrenophora teres. The plants remain for 48 hours in an incubation cabinet at 22° C. and a relative atmospheric humidity of 100%. Then the plants are placed in a greenhouse at a temperature of approximately 20° C. and a relative atmospheric humidity of approximately 80%.
As to `C[Si](C)(Cc1ccc(Cl)cc1Cl)CN(C(=O)c1nccnc1C(F)(F)F)C1CC1` [Example 111], the Efficacy stood at 95%. Compound `C[Si](C)(CN(C(=O)c1nccnc1C(F)(F)F)C1CC1)c1cccs1` [Example 82] registered an Efficacy of 95%. The same measure, in the same setting: with `C[Si](C)(CN(C(=O)c1cccnc1C(F)(F)F)C1CC1)c1cccc(Cl)c1` [Example 33] the figure was 80%.
